Assay results from PubChem BioAssay AID2060606 (Molecular Pharmacology Branch, DTP, NCI, 2025).
pIC50: −log10 of the molar value.

System: 922993-354-T-J3-PDC complex spheroids, viability, % test/control
Test: Anticancer human tumor 922993-354-T-J3-PDC patient-derived endometrial carcinoma cell line growth inhibition [CLK]
Details: for pIC50: curve of first compound; for viability, T/C: stronger effect = lower value
Summary of the method: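 Multi-cell-type spheroids combined patient-derived tumor cells with HUVEC endothelial cells and human mesenchymal stem cells. Paired agents were dosed in half-log steps down from about clinical Cmax, or from 10 microM where Cmax was unknown.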

[1] = second compound 0.0316 µM, first compound 0.0316 µM
[2] = second compound 0.0316 µM, first compound 0.1 µM
[3] = second compound 0.0316 µM, first compound 0.316 µM
[4] = second compound 0.0316 µM, first compound 1 µM
[5] = second compound 0.0316 µM, first compound 3.16 µM
[6] = second compound 0.0316 µM, first compound 10 µM
[7] = second compound 0.1 µM, first compound 0.0316 µM
[8] = second compound 0.1 µM, first compound 0.1 µM
[9] = second compound 0.1 µM, first compound 0.316 µM
[10] = second compound 0.1 µM, first compound 1 µM
[11] = second compound 0.1 µM, first compound 3.16 µM
[12] = second compound 0.1 µM, first compound 10 µM
[13] = second compound 0.316 µM, first compound 0.0316 µM
[14] = second compound 0.316 µM, first compound 0.1 µM
[15] = second compound 0.316 µM, first compound 0.316 µM
[16] = second compound 0.316 µM, first compound 1 µM
[17] = second compound 0.316 µM, first compound 3.16 µM
[18] = second compound 0.316 µM, first compound 10 µM
[19] = second compound 1 µM, first compound 0.0316 µM
[20] = second compound 1 µM, first compound 0.1 µM
[21] = second compound 1 µM, first compound 0.316 µM
[22] = second compound 1 µM, first compound 1 µM
[23] = second compound 1 µM, first compound 3.16 µM
[24] = second compound 1 µM, first compound 10 µM
[25] = second compound 3.16 µM, first compound 0.0316 µM
[26] = second compound 3.16 µM, first compound 0.1 µM
[27] = second compound 3.16 µM, first compound 0.316 µM
[28] = second compound 3.16 µM, first compound 1 µM
[29] = second compound 3.16 µM, first compound 3.16 µM
[30] = second compound 3.16 µM, first compound 10 µM
[31] = second compound 10 µM, first compound 0.0316 µM
[32] = second compound 10 µM, first compound 0.1 µM
[33] = second compound 10 µM, first compound 0.316 µM
[34] = second compound 10 µM, first compound 1 µM
[35] = second compound 10 µM, first compound 3.16 µM
[36] = second compound 10 µM, first compound 10 µM
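Also: spheroids exposed to the agents for 7 days before readout.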

CC(=O)O[C@H]1C(=O)[C@@]2(C)[C@H]([C@H](OC(=O)c3ccccc3)[C@]3(O)C[C@H](OC(=O)[C@H](O)[C@@H](NC(=O)c4ccccc4)c4ccccc4)C(C)=C1C3(C)C)[C@]1(OC(C)=O)CO[C@@H]1C[C@@H]2O + CNC(=O)c1ccc(Nc2nc(OC3CCCC3)c3c(-c4ccc5nc(C)oc5c4)c[nH]c3n2)c(OC)c1
pIC50 (second compound 0.0316 µM): < 5.00
pIC50 (second compound 0.1 µM): < 5.00
pIC50 (second compound 0.316 µM): < 5.00
pIC50 (second compound 1 µM): > 7.50
pIC50 (second compound 3.16 µM): > 7.50
pIC50 (second compound 10 µM): > 7.50
viability, T/C [1]: 113%
viability, T/C [2]: 104%
viability, T/C [3]: 99.3%
viability, T/C [4]: 99.2%
viability, T/C [5]: 69.3%
viability, T/C [6]: 51%
viability, T/C [7]: 101%
viability, T/C [8]: 92.1%
viability, T/C [9]: 104%
viability, T/C [10]: 77.1%
viability, T/C [11]: 61.2%
viability, T/C [12]: 51.8%
viability, T/C [13]: 60.2%
viability, T/C [14]: 59%
viability, T/C [15]: 66.8%
viability, T/C [16]: 73.2%
viability, T/C [17]: 79.7%
viability, T/C [18]: 68.1%
viability, T/C [19]: 42.6%
viability, T/C [20]: 46%
viability, T/C [21]: 44.7%
viability, T/C [22]: 45.9%
viability, T/C [23]: 51.1%
viability, T/C [24]: 47.1%
viability, T/C [25]: 34.6%
viability, T/C [26]: 41.4%
viability, T/C [27]: 35.8%
viability, T/C [28]: 44.3%
viability, T/C [29]: 42.6%
viability, T/C [30]: 39.9%
viability, T/C [31]: 35.4%
viability, T/C [32]: 39.2%
viability, T/C [33]: 40.2%
viability, T/C [34]: 37.4%
viability, T/C [35]: 44.9%
viability, T/C [36]: 36.1%

CCc1c2c(nc3ccc(O)cc13)-c1cc3c(c(=O)n1C2)COC(=O)[C@]3(O)CC + CNC(=O)c1ccc(Nc2nc(OC3CCCC3)c3c(-c4ccc5nc(C)oc5c4)c[nH]c3n2)c(OC)c1
pIC50 (second compound 0.0316 µM): 7.71
pIC50 (second compound 0.1 µM): 7.64
pIC50 (second compound 0.316 µM): 7.78
pIC50 (second compound 1 µM): > 8.50
pIC50 (second compound 3.16 µM): > 8.50
pIC50 (second compound 10 µM): > 8.50
viability, T/C (second compound 0.0316 µM, first compound 0.00316 µM): 101%
viability, T/C (second compound 0.0316 µM, first compound 0.01 µM): 85.3%
viability, T/C [1]: 24.8%
viability, T/C [2]: 15.1%
viability, T/C [3]: 22.3%
viability, T/C [4]: 25.9%
viability, T/C (second compound 0.1 µM, first compound 0.00316 µM): 99.2%
viability, T/C (second compound 0.1 µM, first compound 0.01 µM): 79.2%
viability, T/C [7]: 40.6%
viability, T/C [8]: 15.1%
viability, T/C [9]: 20.7%
viability, T/C [10]: 29.9%
viability, T/C (second compound 0.316 µM, first compound 0.00316 µM): 64.2%
viability, T/C (second compound 0.316 µM, first compound 0.01 µM): 63.4%
viability, T/C [13]: 32.6%
viability, T/C [14]: 16%
viability, T/C [15]: 21.4%
viability, T/C [16]: 31.4%
viability, T/C (second compound 1 µM, first compound 0.00316 µM): 32.1%
viability, T/C (second compound 1 µM, first compound 0.01 µM): 39.8%
viability, T/C [19]: 13.2%
viability, T/C [20]: 13.6%
viability, T/C [21]: 20.3%
viability, T/C [22]: 18.5%
viability, T/C (second compound 3.16 µM, first compound 0.00316 µM): 34.4%
viability, T/C (second compound 3.16 µM, first compound 0.01 µM): 28.1%
viability, T/C [25]: 14.6%
viability, T/C [26]: 13.8%
viability, T/C [27]: 17.4%
viability, T/C [28]: 17.7%
viability, T/C (second compound 10 µM, first compound 0.00316 µM): 30%
viability, T/C (second compound 10 µM, first compound 0.01 µM): 21.8%
viability, T/C [31]: 12.6%
viability, T/C [32]: 14.6%
viability, T/C [33]: 16.5%
viability, T/C [34]: 17.6%

COc1cccc2c1C(=O)c1c(O)c3c(c(O)c1C2=O)CC(O)(C(=O)CO)CC3OC1CC(N)C(O)C(C)O1 (stereo unspecified) + CNC(=O)c1ccc(Nc2nc(OC3CCCC3)c3c(-c4ccc5nc(C)oc5c4)c[nH]c3n2)c(OC)c1
pIC50 (second compound 0.0316 µM): 5.50
pIC50 (second compound 0.1 µM): 5.42
pIC50 (second compound 0.316 µM): 5.72
pIC50 (second compound 1 µM): > 7.50
pIC50 (second compound 3.16 µM): > 7.50
pIC50 (second compound 10 µM): > 7.50
viability, T/C [1]: 101%
viability, T/C [2]: 116%
viability, T/C [3]: 102%
viability, T/C [4]: 78%
viability, T/C [5]: 52.3%
viability, T/C [6]: 22.1%
viability, T/C [7]: 122%
viability, T/C [8]: 123%
viability, T/C [9]: 108%
viability, T/C [10]: 85.7%
viability, T/C [11]: 57%
viability, T/C [12]: 18.7%
viability, T/C [13]: 77%
viability, T/C [14]: 63%
viability, T/C [15]: 66.6%
viability, T/C [16]: 71.3%
viability, T/C [17]: 34.3%
viability, T/C [18]: 17.5%
viability, T/C [19]: 43.1%
viability, T/C [20]: 44.3%
viability, T/C [21]: 22.2%
viability, T/C [22]: 23.5%
viability, T/C [23]: 25.9%
viability, T/C [24]: 3.3%
viability, T/C [25]: 36.8%
viability, T/C [26]: 21.1%
viability, T/C [27]: 18.2%
viability, T/C [28]: 21.7%
viability, T/C [29]: 10.2%
viability, T/C [30]: 0.97%
viability, T/C [31]: 27.5%
viability, T/C [32]: 12.8%
viability, T/C [33]: 16.8%
viability, T/C [34]: 24.5%
viability, T/C [35]: 3.31%
viability, T/C [36]: 1.92%
